From patent US11084818B2 (HEPO PHARMACEUTICAL CO., LTD., priority 2016, dated 2021)

Tests used:
[1] = biological target: T1, hTLR7 (Homo sapiens, UniProt Q9NYK1); test: Activation activity test of hTLR7 (HEK-Blue hTLR7 cells, QUANTI-Blue OD650); assay type: cell-based; conditions: 24 hours incubation, read-out: TLR7 (EC50)
T1 construct: host or cells: HEK-Blue hTLR7 (HEK293-derived reporter line)
T1 sequence (Q9NYK1 27-1049): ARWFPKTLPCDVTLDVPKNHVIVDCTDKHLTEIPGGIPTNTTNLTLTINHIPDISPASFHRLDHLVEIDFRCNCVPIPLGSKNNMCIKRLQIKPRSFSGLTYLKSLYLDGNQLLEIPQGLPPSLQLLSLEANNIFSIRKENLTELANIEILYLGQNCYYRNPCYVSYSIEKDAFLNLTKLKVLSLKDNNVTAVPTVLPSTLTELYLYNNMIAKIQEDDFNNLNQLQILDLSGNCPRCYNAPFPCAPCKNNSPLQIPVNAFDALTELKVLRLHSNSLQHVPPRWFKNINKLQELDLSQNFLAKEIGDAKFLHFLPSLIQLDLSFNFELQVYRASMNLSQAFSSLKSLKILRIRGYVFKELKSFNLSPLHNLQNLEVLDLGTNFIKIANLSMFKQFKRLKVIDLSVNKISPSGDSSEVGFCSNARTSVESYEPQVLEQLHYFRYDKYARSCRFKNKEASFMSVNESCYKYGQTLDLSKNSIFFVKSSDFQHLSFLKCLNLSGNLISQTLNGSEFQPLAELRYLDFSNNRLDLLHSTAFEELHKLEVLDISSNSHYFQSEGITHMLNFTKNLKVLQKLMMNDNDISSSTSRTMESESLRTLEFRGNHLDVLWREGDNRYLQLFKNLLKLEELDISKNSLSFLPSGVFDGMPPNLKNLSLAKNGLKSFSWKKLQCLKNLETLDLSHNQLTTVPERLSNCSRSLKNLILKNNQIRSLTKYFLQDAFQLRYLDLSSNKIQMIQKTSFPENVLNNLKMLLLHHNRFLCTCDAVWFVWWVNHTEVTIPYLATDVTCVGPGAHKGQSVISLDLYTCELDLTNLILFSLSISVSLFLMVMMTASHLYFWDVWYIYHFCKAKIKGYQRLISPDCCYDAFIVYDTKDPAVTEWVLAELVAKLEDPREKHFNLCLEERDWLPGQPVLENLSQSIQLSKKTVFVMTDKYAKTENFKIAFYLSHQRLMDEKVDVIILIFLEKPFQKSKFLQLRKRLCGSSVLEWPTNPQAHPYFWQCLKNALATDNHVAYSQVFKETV
Procedure: (§1) Effect Example 1: Activation Activity Test of hTLR7 and hTLR8
(§2) Cell lines: HEK-Blue™ hTLR7 and HEK-Blue™ hTLR8 (InvivoGen Co.)
(§3) Primary reagents: QUANTI-Blue™ (InvivoGen) and ATPlite 1 Step (PerkinElmer)
(§4) Primary instruments: Automatic Liquid Handling Workstation (Labcyte, Model: Echo), Cell Counter (Countstar, IC1000) and Multifunctional Enzyme Marker (Molecular Device, Flexstation III).
(§5) 2.1 The tested compounds were formulated into a 60 mM concentrated stock solution in DMSO and stored in a nitrogen cabinet.
(§6) 2.3 The T150 cultured cells were taken out from the CO2 incubator and the cell culture supernatant was discarded. The cells were washed with PBS once, followed by addition of about 10 mL of the culture solution. The cells were dissociated by patting the cell culture flask, and gently blown to even by a pipette.
(§7) The cells were counted, and the cell suspension was adjusted to 200,000 cells/mL by the culture solution. Thereafter, 200 μL of diluted cells was added to each well in a 96-well plate containing the compound (40,000 cells/well).
(§8) 2.4 The compounds and cells were incubated in a 5% CO2 incubator at 37° C. for 24 hours.
(§9) 2.5 Compound activity assay: 20 μl of the cell supernatant of each well after induction was added to a cell culture plate containing 180 μL of reagent QUANTI-Blue™, and incubated at 37° C. for 1.5 hours. Thereafter, the optical density absorption (OD650) of each well at 650 nm was measured using a Multifunctional Enzyme Marker: Flexstation III.
(§10) 2.6 Compound Activity: OD650 values were analyzed using GraphPad Prism software and the dose-response curves for the compound were fitted to calculate the EC50 values of the compound.

[2] = biological target: T2, hTLR8 (Homo sapiens, UniProt Q9NR97); test: Activation activity test of hTLR8 (HEK-Blue hTLR8 cells, QUANTI-Blue OD650); assay type: cell-based; conditions: HEK-Blue hTLR8 cells, 24 hours incubation; read-out: TLR8 (EC50)
T2 construct: host or cells: HEK-Blue hTLR8 (HEK293-derived reporter line)
T2 sequence (Q9NR97 27-1041): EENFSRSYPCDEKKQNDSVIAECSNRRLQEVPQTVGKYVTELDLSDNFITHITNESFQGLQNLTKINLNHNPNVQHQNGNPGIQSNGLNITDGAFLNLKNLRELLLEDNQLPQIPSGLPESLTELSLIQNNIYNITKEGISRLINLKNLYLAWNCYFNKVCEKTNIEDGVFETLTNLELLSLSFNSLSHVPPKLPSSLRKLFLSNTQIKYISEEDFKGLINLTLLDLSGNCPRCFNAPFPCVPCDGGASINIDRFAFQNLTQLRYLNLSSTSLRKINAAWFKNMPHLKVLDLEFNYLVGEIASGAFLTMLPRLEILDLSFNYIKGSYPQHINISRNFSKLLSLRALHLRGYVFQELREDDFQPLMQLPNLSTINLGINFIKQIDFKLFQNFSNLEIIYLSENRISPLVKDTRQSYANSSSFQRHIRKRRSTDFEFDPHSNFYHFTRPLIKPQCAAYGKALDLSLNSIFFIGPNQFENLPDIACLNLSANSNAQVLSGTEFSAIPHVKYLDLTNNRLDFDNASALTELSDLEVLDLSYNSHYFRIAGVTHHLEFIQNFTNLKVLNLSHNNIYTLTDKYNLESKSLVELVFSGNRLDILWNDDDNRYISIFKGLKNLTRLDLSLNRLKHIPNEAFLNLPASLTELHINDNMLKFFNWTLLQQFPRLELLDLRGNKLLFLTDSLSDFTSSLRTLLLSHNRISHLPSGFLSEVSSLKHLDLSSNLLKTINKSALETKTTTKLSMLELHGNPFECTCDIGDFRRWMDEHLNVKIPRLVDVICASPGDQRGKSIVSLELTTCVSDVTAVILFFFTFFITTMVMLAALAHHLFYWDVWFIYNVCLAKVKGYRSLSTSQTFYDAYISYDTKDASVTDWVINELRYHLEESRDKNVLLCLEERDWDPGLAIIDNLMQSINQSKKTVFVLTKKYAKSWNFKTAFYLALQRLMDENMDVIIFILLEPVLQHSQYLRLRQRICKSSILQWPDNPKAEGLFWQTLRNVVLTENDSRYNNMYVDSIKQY
Procedure: as §1, §2, §3, §4, §5, §6, §7, §8, §9, §10

SMILES | EC50 [1] [µM] | EC50 [2] [µM]
CCN(CC)Cc1ccc(Cn2c(=O)[nH]c3cnc(OCCOC)nc32)cc1 [Example 10] | 1 to 10 | > 100
O=c1[nH]c2cnc(OCC3CCOCC3)nc2n1Cc1cccc(CN2CCCC2)c1 [Example 28, 9-(3-(pyrrolidin-1-ylmethyl)benzyl)-2-((tetrahydro-2H-pyran-4-yl)methoxy)-7,9-dihydro-8H-purin-8-one] | > 100 | > 100
COCCOc1ncc2[nH]c(=O)n(Cc3cccc(CN4CCC4)c3)c2n1 [Example 19, 2-(2-methoxyethoxy)-9-(3-(azetidin-1-ylmethyl)benzyl)-7,9-dihydro-8H-purin-8-one] | 1 to 10 | > 100
COCCOc1ncc2[nH]c(=O)n(Cc3ccc(CN4CCCCCC4)cc3)c2n1 [Example 4, 2-(2-methoxyethoxy)-9-(4-(azepan-1-ylmethyl)benzyl)-7,9-dihydro-8H-purin-8-one] | 1 to 10 | > 100
CCCCNc1ncc2[nH]c(=O)n(Cc3cccc(CN4CCCC4)c3)c2n1 [Example 31, 2-(butylamino)-9-(3-(pyrrolidin-1-ylmethyl)benzyl)-7,9-dihydro-8H-purin-8-one] | > 100 | > 100
COCCOc1ncc2[nH]c(=O)n(Cc3ccc(CN4CCCC4)cc3F)c2n1 [Example 63, 2-(2-methoxyethoxy)-9-(2-fluoro-4-(pyrrolidin-1-ylmethyl)benzyl)-7,9-dihydro-8H-purin-8-one] | 1 to 10 | > 100
COCCOc1ncc2[nH]c(=O)n(Cc3cccc(CN4CCCCC4)c3)c2n1 [Example 20, 2-(2-methoxyethoxy)-9-(3-(piperidin-1-ylmethyl)benzyl)-7,9-dihydro-8H-purin-8-one] | 10 to 100 | > 100
O=c1[nH]c2cnc(OCCOC(F)(F)F)nc2n1Cc1ccc(CN2CCCC2)cc1 [Example 43] | 0.001 to 1 | > 100
COCCOc1ncc2[nH]c(=O)n(Cc3ccc(CN4CC[C@@H](F)C4)cc3)c2n1 [Example 5, (R)-9-(4-((3-fluoropyrrolidin-1-yl)methyl)benzyl)-2-(2-methoxyethoxy)-7,9-dihydro-8H-purin-8-one] | 1 to 10 | > 100
COCCOc1nc(O)c2[nH]c(=O)n(Cc3ccc(CN4CCCC4)cc3)c2n1 [Example 69, 6-hydroxy-2-(2-methoxyethoxy)-9-(4-(pyrrolidin-1-ylmethyl)benzyl)-7,9-dihydro-8H-purin-8-one] | 10 to 100 | > 100
CCCCOc1ncc2[nH]c(=O)n(Cc3ccc(CN4CCCC4)cc3)c2n1 [Example 66, 9-(4-(pyrrolidin-1-ylmethyl)benzyl)-2-butoxy-7,9-dihydro-8H-purin-8-one] | > 100 | > 100
COCCOc1ncc2[nH]c(=S)n(Cc3ccc(CN4CCCC4)cc3)c2n1 [Example 60, 2-(2-methoxyethoxy)-9-(4-(pyrrolidin-1-ylmethyl)benzyl)-7,9-dihydro-8H-purin-8-thione] | > 100 | > 100

Now from value to molecule:

EC50 [1] [µM] | EC50 [2] [µM] | SMILES
0.001 to 1 | > 100 | O=c1[nH]c2cnc(OCCCOC(F)(F)F)nc2n1Cc1ccc(CN2CCCC2)cc1 [Example 50, 9-(4-(pyrrolidin-1-ylmethyl)benzyl)-2-(3-(trifluoromethoxy)propoxy)-7,9-dihydro-8H-purin-8-one]
> 100 | > 100 | CCCn1c(=O)n(Cc2ccc(CN3CCCC3)cc2)c2nc(OCCOC)ncc21 [Example 57, 9-(4-(pyrrolidin-1-ylmethyl)benzyl)-7-propyl-2-(2-methoxyethoxy)-7,9-dihydro-8H-purin-8-one]
0.001 to 1 | > 100 | COCCCOc1ncc2[nH]c(=O)n(Cc3ccc(CN4CCCC4)cc3)c2n1 [Example 45, 9-(4-(pyrrolidin-1-ylmethyl)benzyl)-2-(3-methoxypropoxy)-7,9-dihydro-8H-purin-8-one]
10 to 100 | > 100 | COCCOc1ncc2[nH]c(=O)n(Cc3cccc(CN4CC[C@@H](F)C4)c3)c2n1 [Example 22, (R)-9-(3-((3-fluoropyrrolidin-1-yl)methyl)benzyl)-2-(2-methoxyethoxy)-7,9-dihydro-8H-purin-8-one]
> 100 | > 100 | CCCC[S+]([O-])c1ncc2[nH]c(=O)n(Cc3cccc(CN4CCCC4)c3)c2n1 (centres unmarked) [Example 34, 2-butylsulfinyl-9-(3-(pyrrolidin-1-ylmethyl)benzyl)-7,9-dihydro-8H-purin-8-one]
10 to 100 | > 100 | COCCOc1ncc2[nH]c(=O)n(C(C)c3ccc(CN4CCCC4)cc3)c2n1 (centres unmarked) [Example 36]
1 to 10 | > 100 | COCCOc1ncc2[nH]c(=O)n(Cc3ccc(CN4CC5CCC4C5)cc3)c2n1 (centres unmarked) [Example 13, 2-(2-methoxyethoxy)-9-(4-((2-aza-bicyclo[2,2,1]heptan-2-yl)methyl)benzyl)-7,9-dihydro-8H-purin-8-one]
1 to 10 | > 100 | O=c1[nH]c2cnc(OCCOCC3CC3)nc2n1Cc1ccc(CN2CCCC2)cc1 [Example 65, 9-(4-(pyrrolidin-1-ylmethyl)benzyl)-2-(2-(cyclopropylmethoxy)ethoxy)-7,9-dihydro-8H-purin-8-one]
1 to 10 | > 100 | COCCOc1ncc2[nH]c(=O)n(Cc3ccc(CCN4CCCC4)cc3)c2n1 [Example 68, 9-(4-(2-(pyrrolidin-1-yl)ethyl)benzyl)-2-(2-methoxyethoxy)-7,9-dihydro-8H-purin-8-one]
10 to 100 | > 100 | COCCOc1nc(F)c2[nH]c(=O)n(Cc3ccc(CN4CCCC4)cc3)c2n1 [Example 70, 6-fluoro-2-(2-methoxyethoxy)-9-(4-(pyrrolidin-1-ylmethyl)benzyl)-7,9-dihydro-8H-purin-8-one]
